Results on one compound are retold here after US12331051B2 (priority 2021, dated 2025).

Data set [1] addresses T1, Beta 1 adrenergic receptor (Homo sapiens, UniProt P08588).
T1 construct: expressed in transfected cells; host or cells: HEK-293
Put plainly: Radioligand binding, cell membrane homogenates. The procedure:
(§1) Neuro-receptor binding and functional effects of the “E559 polymorph” was examined by analyzing binding affinity [Ki (nM)], functional agonist activity [EC50 (nM)], and functional antagonist activity [IC50 (nM)] against a panel of key receptors in neurophysiological disorders. Binding and functional assays were performed at “E559 polymorph” concentrations of 0.0003, 0.003, 0.01, 0.03, 0.1, 0.3, 1, and 10 μM. In binding assays, cell membrane homogenates, expressing each receptor target, were incubated with the corresponding radio-ligand in absence or presence of several concentration of the “E559 polymorph” compound. The measurement of binding affinity of the “E559 polymorph” is represented in TABLE XIII by Ki (nM) which was calculated as percent inhibition of the binding of a radioactively labeled reference ligand at each receptor. In functional assays the HEK-293 cells expressing each receptor target were suspended in buffer and distribute in microplates and incubated for 30 minutes at room temperature or 37° C. in the presence of buffer alone (basal control), the reference agonist or antagonist, or the “E559 polymorph. Following incubation, the cells were lysed and the appropriate fluorescent probe (Ca2+ flux, cAMP, or IP1) were added for 60 minutes to measure the fluorescence transfer at the appropriate wavelength using a microplate reader. The cellular agonist effect (EC50) was calculated as a percent of control response to a known reference agonist and the cellular antagonist effect (IC50) was calculated as a percent inhibition of control reference agonist response for each receptor.

Data set [2] has as its target T2, Serotonin 7 receptor (5-HT7R) (Homo sapiens, UniProt P34969).
T2 construct: expressed in transfected cells; host or cells: HEK-293
In words: Radioligand binding, cell membrane homogenates. The procedure:
as §1

Another data set has as its target T3, D2S dopamine receptor (Homo sapiens, UniProt P14416).
T3 construct: expressed in transfected cells; host or cells: HEK-293
Put plainly: Radioligand binding, cell membrane homogenates. How it is done:
as §1

For data set [3], the system named is rat spared nerve injury (SNI) model. In words: Spared nerve injury (SNI) model, von Frey mechanical allodynia. The data set is classed as in vivo. The procedure:
To evaluate the function the “E559 polymorph” in neuropathic pain, mechanical allodynia test was evaluated by von Frey filament in rat spared nerve injury (SNI) model before and after before and after treatment with the “E559 polymorph”. The SNI model and von Frey filament testing were conducted as previously described (Decosterd & Woolf. Pain, 2000, v87, p149-158). Briefly, Animals with a pain threshold of <15 g, assessed using the Von Frey mechanical allodynia testing, were randomly placed in experimental groups. Each rat group consisted of 10 male rats. On day 7 post-surgery treatment was initiated. […]
The pain response (Von Frey testing) was evaluated on day 0 pre-surgery (labelled as Baseline in FIG. 27), on day 6 post-surgery (labelled as Day 6 Pre grouping in FIG. 27), and at 2, 4, 6, and 24 hours after a single oral dose of either vehicle, or the “E559 polymorph” at 0.3, 1, 3, or 10 mg/kg (labelled as BETR-001 in FIG. 27), or gabapentin at 150 mg/kg. […]
Rat groups were treated (via oral administration) with either vehicle, or the “E559 polymorph” at 20 mg/kg (labelled as BETR-001 in FIG. 28), or gabapentin at 150 mg/kg. […] The pain response (Von Frey testing) was evaluated on day 0 pre-surgery (labelled as Baseline in FIG. 28), on day 6 post-surgery (labelled as Day 6 Pre grouping in FIG. 28), and at 2 hours post-treatment given on days 7, 11, and 15 post-surgery. […]

A short description of data set [4]: Pharmacokinetic study, single IP injection, plasma and brain by LC-MS/MS. Particulars: IP 0.75, 2.25 or 6.75 mg/kg, male and female mice. In kind it is in vivo, CD-1 mice. The procedure:
A pharmacokinetic (PK) study of the “E559 polymorph” was conducted following a single intraperitoneal (IP) injection in CD-1 mice. PK analysis of the “E559 polymorph” was performed in plasma samples and in brain tissue taken at different time points post injection. Three groups of male mice and three groups of female mice (n=24 per group) were administered “E559” at different doses (0.75, 2.25, or 6.75 mg/kg) by IP injection at time zero. In each dose group, three mice/sex were sacrificed to collect plasma and brain samples at pre-dose, and 0.17, 0.5, 1, 2, 4, 8, and 24 hours post-dose. Levels of the “E559 polymorph” in plasma and brain tissue were assessed by LC-MS/MS method. Briefly, to extract the plasma samples, 200 μL of acetonitrile containing 10 ng/mL LSD-d3 was added to 50 μL of plasma. The mixture was vortexed vigorously, centrifuged (13,000 rpm) for 2 min at 4° C., and then 50 μL of supernatant was combined with 200 μL methanol/water (1:1, v/v) for LC-MS/MS analysis. Brain tissues were weighed and homogenized for ˜1 min in cold acetonitrile at a ratio of 1:1.5 (w/v) brain tissue to extraction solvent. The brain samples were then centrifuged at 13,000 rpm for 2 min at 4° C. and the supernatant was collected for LC-MS/MS analysis. In LC-MS/MS method, isocratic elution was performed on an ACE Excel 5 SuperC18™ column at 25° C., with a run time of 6.5 min. The mobile phase consisted of methanol-water (8:2, v/v) plus 0.1% NH4OH at a flow rate of 0.8 mL/min. The injection volume was 10 μL/sample. […]
The “E559 polymorph” was quantified by selected reaction monitoring of the following mass transitions (2-Br-LSD m/z 403.3→302, LSD-d3 internal standard m/z 327.2→226.1). The quantification of the “E559 polymorph” concentration in samples was achieved by using appropriate calibration standards. […] The pharmacokinetic parameters were determined by the non-compartmental analysis using the validated Phoenix®WinNonlin® version 8.2 software (Certara Inc).

One may read the Ki as the dissociation constant of the complex between target and ligand, obtained from inhibition or displacement. The low end stands for higher affinity, the high end for lower affinity.

T3 sequence (P14416 1-414 isoform P14416-2): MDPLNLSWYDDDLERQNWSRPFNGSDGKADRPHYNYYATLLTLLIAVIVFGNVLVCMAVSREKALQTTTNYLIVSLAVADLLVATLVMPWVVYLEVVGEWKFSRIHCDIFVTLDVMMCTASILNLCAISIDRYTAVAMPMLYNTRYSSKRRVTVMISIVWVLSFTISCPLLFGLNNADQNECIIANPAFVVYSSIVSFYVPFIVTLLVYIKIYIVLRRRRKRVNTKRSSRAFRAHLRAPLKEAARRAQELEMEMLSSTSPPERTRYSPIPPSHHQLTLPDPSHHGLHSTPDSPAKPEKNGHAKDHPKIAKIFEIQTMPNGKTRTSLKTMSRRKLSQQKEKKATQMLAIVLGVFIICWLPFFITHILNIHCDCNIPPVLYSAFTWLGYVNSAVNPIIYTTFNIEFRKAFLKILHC
T2 sequence (P34969 whole entry): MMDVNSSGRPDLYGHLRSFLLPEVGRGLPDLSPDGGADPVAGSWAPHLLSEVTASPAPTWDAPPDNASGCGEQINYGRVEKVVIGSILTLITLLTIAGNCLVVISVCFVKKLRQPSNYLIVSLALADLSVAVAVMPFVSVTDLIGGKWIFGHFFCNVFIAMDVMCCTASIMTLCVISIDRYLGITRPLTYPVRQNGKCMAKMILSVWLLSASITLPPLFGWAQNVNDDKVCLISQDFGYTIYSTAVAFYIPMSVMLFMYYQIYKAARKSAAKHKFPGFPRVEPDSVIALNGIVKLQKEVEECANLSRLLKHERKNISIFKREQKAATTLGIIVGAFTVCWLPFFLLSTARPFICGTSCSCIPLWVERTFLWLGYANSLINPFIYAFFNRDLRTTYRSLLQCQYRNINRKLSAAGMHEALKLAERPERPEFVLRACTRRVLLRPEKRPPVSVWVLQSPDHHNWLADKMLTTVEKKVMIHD
T1 sequence (P08588 whole entry): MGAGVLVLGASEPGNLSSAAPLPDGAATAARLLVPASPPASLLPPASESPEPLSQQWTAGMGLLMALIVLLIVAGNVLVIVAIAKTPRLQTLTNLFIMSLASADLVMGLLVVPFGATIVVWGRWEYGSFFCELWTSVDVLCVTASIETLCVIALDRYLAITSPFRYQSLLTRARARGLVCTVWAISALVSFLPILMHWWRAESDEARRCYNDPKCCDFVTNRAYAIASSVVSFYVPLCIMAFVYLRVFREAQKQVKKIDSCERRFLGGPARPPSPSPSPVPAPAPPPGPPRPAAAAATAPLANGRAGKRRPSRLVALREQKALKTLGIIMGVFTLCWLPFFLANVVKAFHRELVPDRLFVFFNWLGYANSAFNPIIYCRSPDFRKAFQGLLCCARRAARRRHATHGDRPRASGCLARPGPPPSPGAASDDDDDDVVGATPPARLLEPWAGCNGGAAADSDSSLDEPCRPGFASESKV

Compound `CCN(CC)C(=O)[C@@H]1C=C2c3cccc4[nH]c(Br)c(c34)C[C@H]2N(C)C1` [E559, (5R, 8R)-2-Bromo-9,10-didehydro-N,N-diethyl-6-methylergoline-8-carboxamide hemi-D-tartrate] had a Ki in data set [1] of 109 nM. The compound also registered a Ki in data set [2] of 3.81 nM. This compound also gave a Ki at D2S dopamine receptor of 2.1 nM. In addition, in data set [3] (oral 20 mg/kg on days 7, 9, 11, 13 and 15 post-surgery), the “inhibition of mechanical allodynia, repeated dosing” value is recorded as “enhanced the inhibition effect on mechanism allodynia to levels comparable to the gabapentin positive control”. The “inhibition of neuropathic pain (von Frey), single dose” value in data set [3] (single oral dose 0.3, 1, 3 or 10 mg/kg on day 7 post-surgery, 2 and 4 hours post administration) was “significant dose-dependent inhibition of neuropathic pain”. In data set [4], the “crossing of the blood-brain barrier (brain PK)” value was “can readily cross the blood-brain barrier”; the plasma levels result is “increases in time-dependent and dose-dependent manners”; the “time to appearance in plasma post dose” value was 10 min.
